# In patent US20230183187A1, “QUINAZOLINE COMPOUNDS AS INHIBITORS OF PREMATURE TERMINATION CODONS” (CENTRE NATIONAL DE LA RECHERCHE SCIENTIFIQUE, priority 2020, published 2023):
# Assays:
# Format in all cases: cell-based, human
# [1] = test system: nonsense mutation R213X; test: pAC99 dual reporter readthrough in HeLa cells, R213X; details: 24 hours
# Method: Different compounds of the invention have been tested for their ability to induce readthrough on the nonsense mutation W1268X or R213X in HeLa cells.
# To this aim the inventors used the pAC99 dual reporter plasmid. This dual reporter is used to quantify stop-codon readthrough through the measurement of luciferase and beta-galactosidase (internal normalisation) activities. Readthrough levels for nonsense mutations were analysed in the presence or absence of tested molecules. Cells are seeded in a 6-well plate. The next day, cells are transfected with the reporter plasmid using the JetPei reagent (Invitrogen). The following day, they are rinsed with fresh medium, with or without readthrough inducers. Cells were harvested 24 hours later, with trypsin—EDTA (Invitrogen), lysed with Glo lysis buffer (Promega) and beta-galactosidase and luciferase activities were assayed as previously described. Readthrough efficiency was estimated by calculating the ratio of luciferase activity to beta-galactosidase activity obtained with the test construct, with normalisation against an in-frame control construct. At least five independent transfection experiments were performed for each assay.
# [2] = test system: Bax mRNA (target of p53); test: RT-qPCR of Bax mRNA in HDQ-P1 cells; details: HDQ-P1, TLN68 80 μM, 48 hours, n=3
# Method: For the analysis of mRNA levels for p53 and its transcriptional target genes, Bax, the inventors extracted total RNA from HDQ-P1 cells that had or had not been treated with G418 (400 μM) or TLN68 (80 μM) for 48 hours (RNeasy Mini Kit, Qiagen). The RNA was treated with DNAse I (RNase-free DNase) and quantified with a Nanodrop spectrometer (ThermoScientific). The absence of RNA degradation was confirmed by agarose gel electrophoresis. The first-strand cDNA was synthesized from 2 μg of total RNA, with random primers and the SuperScript II Reverse Transcriptase (Invitrogen), as recommended by the manufacturer. Quantitative PCR was then carried out on equal amounts of the various cDNAs, with a CFX96 thermocycler (Biorad), and the accumulation of products was monitored with the intercalating dye FastStart Universal SYBRGreen Master (ROX) reagent (Roche). The inventors quantified mRNA levels relative to three reference mRNAs: RPL32, Hprt1 and HMBS. In each experiment, results are expressed relative to those for untreated cells, for which the value obtained was set to 1. Relative levels of gene expression were calculated at early stages of PCR, when the amplification was exponential and might, therefore, be correlated with the initial number of copies of the transcript. […] For the quantification of each mRNA, three independent experiments (from biological replicates) were performed in triplicate. […]
# [3] = test system: HDQ-P1 cells; test: WST1 tetrazolium viability assay, HDQ-P1; details: HDQ-P1, 24 h, maximal dose used
# Method: The inventors tested the effect of TLN68 on viability of NIH3T3, HDQ-P1 and HeLa cell lines by using a tetrazolium salt which is cleaved only by metabolically active cells. Cells were treated or not with a range of TLN68 doses during 24 h and viability was measured.
compound,measurement,setting,value
Cc1nc(NC(=N)N)nc2ccccc12 [TLN68],Inducting factor of readthrough as compared to untreated cells (measured on nonsense mutation R213X),[1],14
same,induction of bax mRNA level relative to untreated,[2],3 fold
same,viable cells,[3],70%
